“And” between values parts separate entries of the source, which are not always exact repeats. Equal entries are not always repeated.
Key:
[1] = Radioligand stability in mice (radio-HPLC of blood and urine); assay type: in vivo; settings: mice blood collected 5 min pi; mean ± SD
Protocol: The formation of radiometabolites which can be detected in the blood was tested in blood samples collected 5 min post-injection (pi) of each of the radioligands [^67Ga]Ga/[^111In]In/[^177Lu]Lu-GAS1/3 and [^67Ga]Ga/[^111In]In-GAS2. For this study, in-house male Swiss albino mice (body weight: 30 ± 5 g, provided by the NCSR “Demokritos” Animal House) were used in groups of three. The animals received, through the tail vein, a 100-μL bolus containing each radioligand tested (2.5–3 nmol of the total conjugate in vehicle: saline/EtOH 9/1 v/v, corresponding to: up to 11 MBq for In-111, up to 13 MBq for Ga-67 and up to 74 MBq for Lu-177). Mice were euthanized, and blood was collected directly from the heart using a prechilled penicillin syringe and transferred in a prechilled EDTA-containing Eppendorf Protein LoBind® tube on ice (40 µL, 50 mM Na2EDTA solution). After centrifugation (10 min, 2000× g/4 °C, in a Hettich, Universal 320R, centrifuge), the blood plasma was collected, mixed with chilled MeCN in a 1/1 v/v ratio and centrifuged again (10 min, 15,000× g/4 °C). Supernatants were collected and concentrated to a small volume (≈50–100 μL) under a gentle N2-flux at 40 °C. They were then diluted with physiological saline (≈400 μL) and filtered through a Millex GV filter (0.22 μm, 13 mm Ø, Millipore, Milford, CT, USA). Aliquots of the filtrate were analyzed by radio-RP-HPLC using a Waters Symmetry Shield RP18 cartridge column (5 μm, 3.9 mm × 20 mm) eluted at a flow rate of 1.0 mL/min with the following gradient: 100% A/0% B to 55% A/45% B in 45 min; A = 0.1% aqueous TFA (v/v) and B = MeCN (system 2). The elution time (tR) of each parent radioligand was determined by coinjection of blood samples with an aliquot of the labeling solution on the HPLC column. Results were calculated as the average percentage of intact radioligand ± SD derived from three independent experiments.
Following the same injection protocol, radioligands were administered in additional groups of mice, but this time animals were euthanized 30 min pi. The urine was immediately collected from the bladder using a prechilled syringe and transferred as before in a prechilled EDTA-containing Eppendorf Protein LoBind® centrifuge tube on ice (40 µL, 50 mM Na2EDTA solution) and 0.1 mL of physiological saline. Urine proteins were precipitated by adding chilled MeCN in a 1/1 v/v ratio followed by a 10 min centrifugation step (15,000× g/4 °C). The supernatant was then collected and treated following the blood sample workup procedure. Aliquots of the Millex-GV filtrate (containing >90% of total urine activity) were analyzed by radio-HPLC, adopting the aforementioned conditions. Results were calculated as the average percentage of intact radioligand ± SD derived from three independent experiments.

[2] = test system: SCID mice bearing twin HEK293-CCK2i4svR and wtHEK293 tumors; test: Biodistribution in SCID mice bearing twin HEK293-CCK2i4svR and wtHEK293 xenografts; assay type: in vivo
Outline: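 Uptake is expressed as %IA/g (mean ± SD, n = 4) from gamma counting of blood, organs and tumours collected at set times: 1, 4 and 24 h pi for ^67Ga, 4 and 24 h for ^111In (±gelofusine), 4–96 h for ^177Lu. Radioligands were given iv at 7–40 pmol to SCID mice bearing twin CCK2i4svR-transfected and wild-type HEK293 xenografts.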

[3] = test system: HEK293-CCK2i4svR and wtHEK293 xenografts; test: SPECT/CT of HEK293-CCK2i4svR and wtHEK293 xenografts; assay type: in vivo, mice; settings: 4 h and 24 h pi
Protocol: For SPECT/CT imaging, six mice bearing twin HEK293-CCK2i4svR and wtHEK293 tumors were injected in the tail vein with a bolus containing [^111In]In-GAS1/2/3 (100 μL, 9–12 MBq associated with 3 nmol total injected analog in-vehicle: saline/EtOH 9/1 v/v). Mice were euthanized at 4 h and 24 h pi. Tomographic SPECT/CT imaging was performed with the y-CUBE/x-CUBE systems (Molecubes, Belgium). The SPECT system is based on monolithic NaI detectors attached to SiPMs, with a 0.6 mm intrinsic resolution. The CT system is based on a structured CMOS detector of CsI with pixels of 75 µm and operates between 35–80 kVp, 10–500 µA tube current, with a 33 µm fixed focal spot size. SPECT scans were acquired 4 h pi and 24 h pi, with a 40–50 min duration protocol based on the injected activity, and each SPECT scan was succeeded by a CT scan, following General-Purpose protocol under 50 kVp, for co-registration purposes. SPECT images were reconstructed using the MLEM reconstruction method with a 250 µm voxel size and 500 iterations. CT images were reconstructed using the ISRA reconstruction method with a 100 µm voxel size.
Images were exported and post-processed on VivoQuant software, version 4.0 (Invicro, Boston). A smoothing median filter (0.6 mm, spherical window) was applied to the images, and the bladder was removed for consistency purposes. Normalization of images was performed (i.e., all images having the same color scale range values) to achieve a direct visual comparison between the different groups.

[4] = 4 h + Gelo (Gelofusine-treated mice)
[5] = 24 h + Gelo (Gelofusine-treated mice)

Biodistribution, Blood [2, 4]: 6.29 ± 1.08 %IA/g
Biodistribution, CCK2i4svR(+) Tumor [2, 4]: 7.67 ± 0.61 %IA/g
Biodistribution, CCK2i4svR(-) Tumor [2, 4]: 1.72 ± 0.30 %IA/g
Biodistribution, Femur [2, 4]: 0.99 ± 0.17 %IA/g
Biodistribution, Heart [2, 4]: 1.42 ± 0.21 %IA/g
Biodistribution, Intestines [2, 4]: 9.48 ± 0.99 %IA/g
Biodistribution, Kidneys [2, 4]: 21.90 ± 3.97 %IA/g
Biodistribution, Liver [2, 4]: 4.56 ± 0.49 %IA/g
Biodistribution, Muscle [2, 4]: 0.47 ± 0.04 %IA/g
Biodistribution, Pancreas [2, 4]: 3.00 ± 0.58 %IA/g
Biodistribution, Spleen [2, 4]: 1.32 ± 0.20 %IA/g
Biodistribution, Stomach [2, 4]: 0.94 ± 0.15 %IA/g
Biodistribution, Blood ([2]; 4 h pi): 6.40 ± 0.75 %IA/g
Biodistribution, CCK2i4svR(+) Tumor ([2]; 4 h pi): 8.91 ± 1.59 %IA/g
Biodistribution, CCK2i4svR(-) Tumor ([2]; 4 h pi): 1.82 ± 0.25 %IA/g
Biodistribution, Femur ([2]; 4 h pi): 1.15 ± 0.10 %IA/g
Biodistribution, Heart ([2]; 4 h pi): 1.61 ± 0.23 %IA/g
Biodistribution, Intestines ([2]; 4 h pi): 9.71 ± 0.42 %IA/g
Biodistribution, Kidneys ([2]; 4 h pi): 29.55 ± 3.64 %IA/g
Biodistribution, Liver ([2]; 4 h pi): 5.42 ± 0.89 %IA/g
Biodistribution, Lungs ([2]; 4 h pi): 3.27 ± 0.46 %IA/g
Biodistribution, Muscle ([2]; 4 h pi): 0.56 ± 0.08 %IA/g
Biodistribution, Pancreas ([2]; 4 h pi): 2.99 ± 0.96 %IA/g
Biodistribution, Spleen ([2]; 4 h pi): 1.49 ± 0.14 %IA/g
Biodistribution, Stomach ([2]; 4 h pi): 1.31 ± 0.21 %IA/g
Biodistribution, Blood [2, 5]: 0.15 ± 0.02 %IA/g
Biodistribution, CCK2i4svR(+) Tumor [2, 5]: 2.92 ± 0.37 %IA/g
Biodistribution, CCK2i4svR(-) Tumor [2, 5]: 0.45 ± 0.09 %IA/g
Biodistribution, Femur [2, 5]: 0.25 ± 0.03 %IA/g
Biodistribution, Heart [2, 5]: 0.22 ± 0.03 %IA/g
Biodistribution, Intestines [2, 5]: 0.75 ± 0.06 %IA/g
Biodistribution, Kidneys [2, 5]: 11.51 ± 2.64 %IA/g
Biodistribution, Liver [2, 5]: 0.95 ± 0.12 %IA/g
Biodistribution, Lungs [2, 5]: 0.44 ± 0.07 %IA/g
Biodistribution, Muscle [2, 5]: 0.08± 0.01 %IA/g
Biodistribution, Pancreas [2, 5]: 0.30 ± 0.05 %IA/g
Biodistribution, Spleen [2, 5]: 0.56 ± 0.17 %IA/g
Biodistribution, Stomach [2, 5]: 0.35 ± 0.06 %IA/g
Biodistribution, Blood ([2]; 24 h pi): 0.13 ± 0.02 %IA/g
Biodistribution, CCK2i4svR(+) Tumor ([2]; 24 h pi): 2.78 ± 0.43 %IA/g
Biodistribution, CCK2i4svR(-) Tumor ([2]; 24 h pi): 0.41 ± 0.10 %IA/g
Biodistribution, Femur ([2]; 24 h pi): 0.24 ± 0.04 %IA/g
Biodistribution, Heart ([2]; 24 h pi): 0.22 ± 0.01 %IA/g
Biodistribution, Intestines ([2]; 24 h pi): 0.68 ± 0.15 %IA/g
Biodistribution, Kidneys ([2]; 24 h pi): 10.16 ± 2.30 %IA/g
Biodistribution, Liver ([2]; 24 h pi): 0.96 ± 0.22 %IA/g
Biodistribution, Lungs ([2]; 24 h pi): 0.60 ± 0.37 %IA/g
Biodistribution, Muscle ([2]; 24 h pi): 0.08 ± 0.01 %IA/g
Biodistribution, Pancreas ([2]; 24 h pi): 0.29 ± 0.03 %IA/g
Biodistribution, Spleen ([2]; 24 h pi): 0.51 ± 0.09 %IA/g
Biodistribution, Stomach ([2]; 24 h pi): 0.36 ± 0.14 %IA/g
SPECT/CT uptake in CCK2i4svR expressing tumors [3]: Intense uptake
SPECT/CT uptake in wtHEK293 tumors devoid of CCK2i4svR expression [3]: no uptake is evident
Structure (SMILES): CC(C)(C)C(=O)CN1C(=O)[C@H](NC(=O)Nc2cccc(C(=O)NCCOCCOCCOCCNC(=O)[C@@H](CCC(=O)O)NC(=O)CCC(C(=O)[O-])N3CCN(CC(=O)[O-])CCN(CC(=O)[O-])CC3)c2)CN(C2CCCCC2)c2ccccc21.[111In+3] (stereo partly drawn) [[^111In]In-GAS2]
Intact radioligand in blood [1]: 73.1 ± 1.8% and 73.1 ± 1.8 (3) % and 98.3 ± 0.3 (3) %

Source: publication PMC8954547, “Nonpeptidic Z360-Analogs Tagged with Trivalent Radiometals as Anti-CCK2R Cancer Theranostic Agents: A Preclinical Study” (Pharmaceutics, 2022)
